In ChEMBL document CHEMBL4613206, “Recent applications of hydantoin and thiohydantoin in medicinal chemistry” (Eur J Med Chem, 2019):
In brackets after ≈: the same amount, converted by molar mass.

Key:
Tyrosinase = biological target: T1, Tyrosinase (Homo sapiens, UniProt P14679); assay: Inhibition of tyrosinase (unknown origin)
T1 sequence (P14679 whole entry): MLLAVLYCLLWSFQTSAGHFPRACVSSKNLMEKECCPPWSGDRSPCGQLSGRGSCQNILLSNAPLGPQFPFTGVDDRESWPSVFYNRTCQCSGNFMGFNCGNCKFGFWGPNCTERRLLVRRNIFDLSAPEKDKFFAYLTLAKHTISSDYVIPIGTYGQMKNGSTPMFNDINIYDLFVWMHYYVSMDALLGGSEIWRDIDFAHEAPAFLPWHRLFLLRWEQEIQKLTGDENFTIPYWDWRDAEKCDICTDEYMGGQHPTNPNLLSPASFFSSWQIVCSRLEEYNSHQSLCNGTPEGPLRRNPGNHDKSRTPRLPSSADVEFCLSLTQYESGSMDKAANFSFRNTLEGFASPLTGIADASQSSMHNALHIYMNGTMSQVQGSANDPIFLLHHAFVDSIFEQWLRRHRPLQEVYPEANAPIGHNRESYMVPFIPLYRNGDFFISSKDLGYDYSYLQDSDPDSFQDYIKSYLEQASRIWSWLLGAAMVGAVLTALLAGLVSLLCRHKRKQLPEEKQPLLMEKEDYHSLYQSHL

Escherichia coli [1] = assay: Antibacterial activity against Escherichia coli; assay type: functional
Staphylococcus aureus [2] = assay: Antibacterial activity against methicillin resistant Staphylococcus aureus; assay type: functional
[3] = test system: Staphylococcus epidermidis; assay: Antibacterial activity against methicillin resistant Staphylococcus epidermidis; assay type: functional
Pseudomonas aeruginosa [4] = assay: Antibacterial activity against Pseudomonas aeruginosa; assay type: functional
Klebsiella pneumoniae = assay: Antibacterial activity against Klebsiella pneumoniae; assay type: functional
Enterococcus faecalis [5] = assay: Antibacterial activity against Enterococcus faecalis; assay type: functional
[6] = biological target: T2, NAD-dependent protein deacetylase sirtuin-1 (Homo sapiens, UniProt Q96EB6); assay: Inhibition of recombinant human SIRT1 after 30 mins
T2 sequence (Q96EB6 whole entry): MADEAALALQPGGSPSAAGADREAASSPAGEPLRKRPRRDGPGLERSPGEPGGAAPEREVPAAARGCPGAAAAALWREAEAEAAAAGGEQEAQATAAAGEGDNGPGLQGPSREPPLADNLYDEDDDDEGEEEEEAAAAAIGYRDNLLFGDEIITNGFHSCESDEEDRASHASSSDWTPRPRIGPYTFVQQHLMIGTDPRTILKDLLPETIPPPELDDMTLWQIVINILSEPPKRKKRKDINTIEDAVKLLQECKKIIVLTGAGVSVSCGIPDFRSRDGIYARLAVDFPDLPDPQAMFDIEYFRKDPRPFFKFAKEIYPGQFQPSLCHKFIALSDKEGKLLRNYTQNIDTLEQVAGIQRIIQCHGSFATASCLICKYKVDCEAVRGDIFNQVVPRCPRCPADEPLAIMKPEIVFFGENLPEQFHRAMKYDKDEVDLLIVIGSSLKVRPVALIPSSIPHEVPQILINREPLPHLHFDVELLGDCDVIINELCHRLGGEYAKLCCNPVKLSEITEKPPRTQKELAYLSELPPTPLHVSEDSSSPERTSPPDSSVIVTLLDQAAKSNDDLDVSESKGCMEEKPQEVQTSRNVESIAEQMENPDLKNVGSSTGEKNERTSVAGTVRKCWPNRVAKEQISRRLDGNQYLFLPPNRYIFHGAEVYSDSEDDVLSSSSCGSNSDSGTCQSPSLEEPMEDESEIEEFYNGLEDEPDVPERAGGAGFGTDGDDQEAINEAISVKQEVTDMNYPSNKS

[7] = biological target: T3, NAD-dependent protein deacetylase sirtuin-2 (Homo sapiens, UniProt Q8IXJ6); assay: Inhibition of recombinant human SIRT2 after 30 mins
T3 sequence (Q8IXJ6 whole entry): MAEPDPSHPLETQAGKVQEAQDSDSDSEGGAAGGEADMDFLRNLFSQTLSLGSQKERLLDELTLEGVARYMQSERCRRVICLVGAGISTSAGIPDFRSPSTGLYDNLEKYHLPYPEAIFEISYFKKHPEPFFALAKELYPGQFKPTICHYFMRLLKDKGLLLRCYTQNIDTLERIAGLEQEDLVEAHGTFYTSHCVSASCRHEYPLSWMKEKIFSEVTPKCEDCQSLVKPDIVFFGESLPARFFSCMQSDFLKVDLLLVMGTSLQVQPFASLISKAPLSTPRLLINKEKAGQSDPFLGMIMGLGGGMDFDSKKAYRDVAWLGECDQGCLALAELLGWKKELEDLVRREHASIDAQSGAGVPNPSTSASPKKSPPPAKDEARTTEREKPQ

HEp-2 = assay: Cytotoxicity against human Hep2 cells assessed as reduction in cell viability by MTT assay; assay type: functional, cell-based
Escherichia coli [8] = assay: Antibacterial activity against Escherichia coli ATCC 25922; assay type: functional
Pseudomonas aeruginosa [9] = assay: Antibacterial activity against Pseudomonas aeruginosa ATCC 27853; assay type: functional
Enterococcus faecalis [10] = assay: Antibacterial activity against Enterococcus faecalis ATCC 29212; assay type: functional
Staphylococcus aureus [11] = assay: Antibacterial activity against Staphylococcus aureus ATCC 25923; assay type: functional
Staphylococcus aureus [12] = assay: Antibacterial activity against methicillin resistant Staphylococcus aureus ATCC 43300; assay type: functional
Mus musculus [13] = assay: Anti-inflammatory activity in xylene-induced Kunming mouse assessed as inhibition of ear edema administered as po dose 1 hr before xylene administration and measured after 1 hr xylene administration relative to control; assay type: functional; set-up: scale not given: the % may be the effect or the level left
Mus musculus [14] = assay: Antitussive activity in ammonia aerosol-stimulated Kunming mouse assessed as inhibition of number of cough administered as po dose 1 hr before ammonia aerosol stimulation (reference value: 42); assay type: functional
Staphylococcus aureus [15] = assay: Antibacterial activity against Staphylococcus aureus; assay type: functional

Compound COC(=O)CN1C(=O)N(CCCCN2CCN(c3ccccc3OC)CC2)C(c2ccccc2)(c2ccccc2)C1=O has an IC50 (Tyrosinase) of 1.07 µM.

COc1ccccc1N1CCN(CCCCN2C(=O)N(C)C(=O)C2(c2ccccc2)c2ccccc2)CC1 showed an IC50 (Tyrosinase) of 7.36 µM.

CCCCCCCCCCCC(=O)N[C@@H](CCCCN)CN1CC(=O)N(c2cccc(Cl)c2)C1=O was tested, and the MIC (Escherichia coli [1]) was 1 µg/mL, the MIC (Staphylococcus aureus [2]) was 0.5 µg/mL (≈ 0.986 µM) and the MIC [3] was 0.5 µg/mL (≈ 0.986 µM). For the same compound, the MIC (Pseudomonas aeruginosa [4]) was 1 µg/mL (≈ 1.97 µM), the MIC (Klebsiella pneumoniae) was 0.78 µg/mL (≈ 1.54 µM) and the MIC (Enterococcus faecalis [5]) was 0.5 µg/mL (≈ 0.986 µM).

With O=C1N/C(=C\c2ccc(N3CCCC3)cc2)C(=O)N1Cc1ccc(Cl)cc1 the IC50 [6] was 38.6 µM and the IC50 [7] was 38.8 µM.

CC(C)C1NC(=O)N(OCc2cccc(Cl)c2)C1=O (stereo unspecified) gave an IC50 (HEp-2) of 0.07 µM.

CC(C)CC1NC(=O)N(OCc2cccc(Cl)c2)C1=O (stereo unspecified) was tested, and the IC50 (HEp-2) was 0.04 µM.

CC(C)CC1NC(=O)N(OCc2ccc(Br)cc2)C1=O (stereo unspecified) gave an IC50 (HEp-2) of 0.15 µM.

For O=C1CN(/N=C2\C(=O)N(Cc3ccc(F)cc3)c3ccccc32)C(=O)N1, the MIC (Escherichia coli [8]) was 6.25 to 12.5 µg/mL (≈ 17.7 to 35.5 µM), the MIC (Pseudomonas aeruginosa [9]) was 12.5 µg/mL (≈ 35.5 µM) and the MIC (Enterococcus faecalis [10]) was 12.5 µg/mL (≈ 35.5 µM). The MIC (Staphylococcus aureus [11]) was 6.25 µg/mL (≈ 17.7 µM) and the MIC (Staphylococcus aureus [12]) was 6.25 µg/mL (≈ 17.7 µM).

With CC(C)Cc1ccc(C(C)C(=O)N2C(=O)CN(C)C2=O)cc1 (stereo unspecified) the Activity (Mus musculus [13]) was 54.61% and the Number of coughs (Mus musculus [14]) was 15.5.

CCN(CC)c1ccc(/C=C2\NC(=O)N(Cc3ccc(C)cc3)C2=O)cc1 gave an IC50 [6] of 94 µM and an IC50 [7] of 68.7 µM.

For O=C1CN(/N=C2\C(=O)N(Cc3ccccc3F)c3ccccc32)C(=O)N1, the MIC (Escherichia coli [8]) was 6.25 to 12.5 µg/mL (≈ 17.7 to 35.5 µM), the MIC (Pseudomonas aeruginosa [9]) was 12.5 µg/mL (≈ 35.5 µM) and the MIC (Enterococcus faecalis [10]) was 12.5 µg/mL (≈ 35.5 µM). The MIC (Staphylococcus aureus [11]) was 6.25 µg/mL (≈ 17.7 µM) and the MIC (Staphylococcus aureus [12]) was 6.25 µg/mL (≈ 17.7 µM).

For CC(C)Cc1ccc(C(C)C(=O)N2C(=O)CNC2=O)cc1 (stereo unspecified), the Activity (Mus musculus [13]) was 24.51% and the Number of coughs (Mus musculus [14]) was 18.3.

Work on O=C1NC(CN2CCCC2)C(=O)N1c1c(Cl)cccc1Cl (stereo unspecified) yielded an MIC (Staphylococcus aureus [15]) of 0.044 µM (≈ 0.0144 µg/mL) and an MIC (Escherichia coli [1]) of 0.088 µM.

In the case of O=C1N/C(=C\c2ccc(O)c(Cl)c2)C(=O)N1Cc1ccc(F)cc1, the IC50 [6] is reported as 32.1 µM and the IC50 [7] is reported as 37.7 µM.

CC(C)Cc1ccc(C(C)C(=O)N2C(=O)N(C)C(C)(C)C2=O)cc1 (stereo unspecified) gave an Activity (Mus musculus [13]) of 25% and a Number of coughs (Mus musculus [14]) of 18.6.

Work on O=C1CN(/N=C2\C(=O)N(Cc3cccc(F)c3)c3ccccc32)C(=O)N1 yielded an MIC (Escherichia coli [8]) of 6.25 to 12.5 µg/mL (≈ 17.7 to 35.5 µM), an MIC (Pseudomonas aeruginosa [9]) of 12.5 µg/mL (≈ 35.5 µM) and an MIC (Enterococcus faecalis [10]) of 12.5 µg/mL (≈ 35.5 µM). For the same compound, the MIC (Staphylococcus aureus [11]) was 6.25 µg/mL (≈ 17.7 µM) and the MIC (Staphylococcus aureus [12]) was 6.25 µg/mL (≈ 17.7 µM).

In the case of CC(C)Cc1ccc(C(C)C(=O)O)cc1 (stereo unspecified) [IBUPROFEN], the Activity (Mus musculus [13]) is reported as 28.07%.
